According to PubChem BioAssay AID248 (DTP/NCI, 2004):
Values joined by “and” are separate entries in the source; they are usually repeats but may differ in a detail not shown here. Identical values can stand only once. Inconclusive results and toxic doses are left out.

Test system: L1210 leukemia ip in BDF1 mice, survival T/C
Assay: NCI In Vivo Anticancer Drug Screen. Data for tumor model L1210 Leukemia (intraperitoneal) in B6D2F1 (BDF1) mice
Conditions: endpoint: mean survival time, higher = longer survival
Summary of the method: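 In this screen, tumor-bearing mice given compound are compared to those given vehicle, and their survival values are reported as a treated-to-control quotient.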

[1] = dose: 100.0 mg/kg/injection, schedule: Q04DX003 (ip), vehicle: Klucel (hydroxypropylcellulose) (HPC)
[2] = dose: 200.0 mg/kg/injection, schedule: Q04DX003 (ip), vehicle: Klucel (hydroxypropylcellulose) (HPC)
[3] = dose: 400.0 mg/kg/injection, schedule: Q04DX003 (ip), vehicle: Klucel (hydroxypropylcellulose) (HPC)
[4] = dose: 75.0 mg/kg/injection, schedule: Q01DX001 (ip), vehicle: saline
[5] = dose: 5.0 mg/kg/injection, schedule: Q01DX001 (ip), vehicle: saline
[6] = dose: 10.0 mg/kg/injection, schedule: Q01DX001 (ip), vehicle: saline
[7] = dose: 20.0 mg/kg/injection, schedule: Q01DX001 (ip), vehicle: saline
[8] = dose: 40.0 mg/kg/injection, schedule: Q01DX001 (ip), vehicle: saline
[9] = dose: 80.0 mg/kg/injection, schedule: Q01DX001 (ip), vehicle: saline
[10] = dose: 100.0 mg/kg/injection, schedule: Q01DX001 (ip), vehicle: saline
[11] = dose: 400.0 mg/kg/injection, schedule: Q01DX001 (ip), vehicle: saline
[12] = dose: 200.0 mg/kg/injection, schedule: Q01DX001 (ip), vehicle: saline

## O=c1cn[nH]c(=O)[nH]1
dose: 62.5 mg/kg/injection, schedule: Q01DX009 (ip), vehicle: saline
  T/C: 105 % of control and 107 % of control
dose: 62.5 mg/kg/injection, schedule: Q01DX010 (ip), vehicle: saline
  T/C: 97 % of control and 102 % of control
dose: 110.1 mg/kg/injection, schedule: Q01DX Z (ip), vehicle: carboxymethylcellulose (CMC)
  T/C: 107 % of control
dose: 125.0 mg/kg/injection, schedule: Q01DX009 (ip), vehicle: saline
  T/C: 103 % of control and 118 % of control
dose: 125.0 mg/kg/injection, schedule: Q01DX010 (ip), vehicle: saline
  T/C: 94 % of control and 101 % of control
dose: 132.0 mg/kg/injection, schedule: Q01DX Z (ip), vehicle: methylcellulose (MC)
  T/C: 97 % of control
dose: 200.0 mg/kg/injection, schedule: Q01DX Z (ip), vehicle: methylcellulose (MC)
  T/C: 111 % of control
dose: 220.2 mg/kg/injection, schedule: Q01DX Z (ip), vehicle: carboxymethylcellulose (CMC)
  T/C: 121 % of control
dose: 250.0 mg/kg/injection, schedule: Q01DX009 (ip), vehicle: saline
  T/C: 100 % of control and 107 % of control
dose: 250.0 mg/kg/injection, schedule: Q01DX010 (ip), vehicle: saline
  T/C: 108 % of control and 111 % of control
dose: 300.0 mg/kg/injection, schedule: Q01DX Z (ip), vehicle: methylcellulose (MC)
  T/C: 111 % of control
dose: 440.4 mg/kg/injection, schedule: Q01DX Z (ip), vehicle: carboxymethylcellulose (CMC)
  T/C: 113 % of control
dose: 450.0 mg/kg/injection, schedule: Q01DX Z (ip), vehicle: methylcellulose (MC)
  T/C: 105 % of control
dose: 500.0 mg/kg/injection, schedule: Q01DX009 (ip), vehicle: saline
  T/C: 112 % of control and 120 % of control
dose: 500.0 mg/kg/injection, schedule: Q01DX010 (ip), vehicle: saline
  T/C: 117 % of control and 118 % of control
dose: 675.0 mg/kg/injection, schedule: Q01DX Z (ip), vehicle: methylcellulose (MC)
  T/C: 124 % of control
dose: 880.8 mg/kg/injection, schedule: Q01DX Z (ip), vehicle: carboxymethylcellulose (CMC)
  T/C: 121 % of control
dose: 1011.0 mg/kg/injection, schedule: Q01DX Z (ip), vehicle: methylcellulose (MC)
  T/C: 109 % of control

## CC(=O)Oc1cc(-c2ccccc2)c2oc(C)nc2c1-c1ccccc1
[1]
  T/C: 101 % of control
[2]
  T/C: 103 % of control
[3]
  T/C: 93 % of control

## COC1C(OC(C)=O)C(OC(C)=O)C(OC(C)=O)C(OC(C)=O)C1OC(C)=O (centres undefined)
dose: 50.0 mg/kg/injection, schedule: Q01DX009 (ip), vehicle: saline with Tween-80
  T/C: 94 % of control
dose: 100.0 mg/kg/injection, schedule: Q01DX009 (ip), vehicle: saline with Tween-80
  T/C: 98 % of control
dose: 200.0 mg/kg/injection, schedule: Q01DX009 (ip), vehicle: saline with Tween-80
  T/C: 88 % of control

## N#Cc1cc(C#N)c(Cl)nc1N
dose: 100.0 mg/kg/injection, schedule: Q01DX009 (ip), vehicle: Klucel (hydroxypropylcellulose) (HPC)
  T/C: 94 % of control
[1]
  T/C: 97 % of control
dose: 200.0 mg/kg/injection, schedule: Q01DX009 (ip), vehicle: Klucel (hydroxypropylcellulose) (HPC)
  T/C: 95 % of control
[2]
  T/C: 95 % of control
[3]
  T/C: 106 % of control

## CC12CCC3C(CC=C4CC(SC(=N)N)CCC43C)C1CCC2=O (centres undefined)
dose: 100.0 mg/kg/injection, schedule: Q01DX001 (ip), vehicle: Klucel (hydroxypropylcellulose) (HPC)
  T/C: 95 % of control
[1]
  T/C: 97 % of control
dose: 200.0 mg/kg/injection, schedule: Q01DX001 (ip), vehicle: Klucel (hydroxypropylcellulose) (HPC)
  T/C: 95 % of control
[2]
  T/C: 95 % of control
dose: 400.0 mg/kg/injection, schedule: Q01DX001 (ip), vehicle: Klucel (hydroxypropylcellulose) (HPC)
  T/C: 101 % of control
[3]
  T/C: 97 % of control

## CC(=O)NNC(=O)c1cccnc1
dose: 100.0 mg/kg/injection, schedule: Q01DX001 (ip), vehicle: water
  T/C: 95 % of control
dose: 100.0 mg/kg/injection, schedule: Q01DX009 (ip), vehicle: water
  T/C: 95 % of control
dose: 200.0 mg/kg/injection, schedule: Q01DX001 (ip), vehicle: water
  T/C: 104 % of control
dose: 200.0 mg/kg/injection, schedule: Q01DX009 (ip), vehicle: water
  T/C: 101 % of control
dose: 400.0 mg/kg/injection, schedule: Q01DX001 (ip), vehicle: water
  T/C: 101 % of control
dose: 400.0 mg/kg/injection, schedule: Q01DX009 (ip), vehicle: water
  T/C: 116 % of control
dose: 800.0 mg/kg/injection, schedule: Q01DX009 (ip), vehicle: water
  T/C: 116 % of control

## OC1OCC(OCc2ccccc2)C(OCc2ccccc2)C1OCc1ccccc1 (centres undefined)
dose: 100.0 mg/kg/injection, schedule: Q01DX001 (ip), vehicle: carboxymethylcellulose (CMC)
  T/C: 101 % of control
dose: 200.0 mg/kg/injection, schedule: Q01DX001 (ip), vehicle: carboxymethylcellulose (CMC)
  T/C: 101 % of control
dose: 400.0 mg/kg/injection, schedule: Q01DX001 (ip), vehicle: carboxymethylcellulose (CMC)
  T/C: 95 % of control

## CNC(=O)CCN1CCN(CC/C=C2\c3ccccc3Sc3ccc(Cl)cc32)CC1
dose: 1.56 mg/kg/injection, schedule: Q03HX024 (ip), vehicle: saline
  T/C: 95 % of control
dose: 2.05 mg/kg/injection, schedule: Q01DX009 (ip), vehicle: saline
  T/C: 90 % of control
dose: 3.12 mg/kg/injection, schedule: Q03HX024 (ip), vehicle: saline
  T/C: 100 % of control
dose: 4.1 mg/kg/injection, schedule: Q01DX009 (ip), vehicle: saline
  T/C: 94 % of control
dose: 8.2 mg/kg/injection, schedule: Q01DX009 (ip), vehicle: saline
  T/C: 111 % of control
dose: 16.5 mg/kg/injection, schedule: Q01DX009 (ip), vehicle: saline
  T/C: 111 % of control
dose: 18.75 mg/kg/injection, schedule: Q01DX001 (ip), vehicle: saline
  T/C: 106 % of control
dose: 25.0 mg/kg/injection, schedule: Q04DX003 (ip), vehicle: saline
  T/C: 122 % of control
dose: 37.5 mg/kg/injection, schedule: Q01DX001 (ip), vehicle: saline
  T/C: 108 % of control
[4]
  T/C: 106 % of control
dose: 100.0 mg/kg/injection, schedule: Q04DX003 (ip), vehicle: saline
  T/C: 114 % of control
dose: 150.0 mg/kg/injection, schedule: Q01DX001 (ip), vehicle: saline
  T/C: 106 % of control

## O=c1[nH]ncn1-c1ccccc1
[1]
  T/C: 96 % of control
[2]
  T/C: 92 % of control
[3]
  T/C: 91 % of control

## O=C(O)Cn1[nH]c(=O)ccc1=O
dose: 100.0 mg/kg/injection, schedule: Q01DX001 (ip), vehicle: saline with Tween-80
  T/C: 103 % of control
dose: 200.0 mg/kg/injection, schedule: Q01DX001 (ip), vehicle: saline with Tween-80
  T/C: 103 % of control
dose: 400.0 mg/kg/injection, schedule: Q01DX001 (ip), vehicle: saline with Tween-80
  T/C: 102 % of control

## CC1(C)OC(=O)CC1c1ccccc1 (centres undefined)
[5]
  T/C: 108 % of control
[6]
  T/C: 101 % of control
[7]
  T/C: 86 % of control
[8]
  T/C: 97 % of control
[9]
  T/C: 101 % of control
[10]
  T/C: 102 % of control
[11]
  T/C: 95 % of control

## O=C(O)C1C=CC(C(=O)O)c2ccccc21 (centres undefined)
[1]
  T/C: 102 % of control
[2]
  T/C: 96 % of control
[3]
  T/C: 98 % of control

## CC(=O)NC1C(O)OC(COC(c2ccccc2)(c2ccccc2)c2ccccc2)C(O)C1O (centres undefined)
[10]
  T/C: 91 % of control
[12]
  T/C: 93 % of control
[11]
  T/C: 104 % of control

## C[N+](C)(Cc1ccccc1)Cc1ccccc1
[5]
  T/C: 96 % of control
[6]
  T/C: 98 % of control
[7]
  T/C: 102 % of control
[8]
  T/C: 102 % of control
[4]
  T/C: 105 % of control
[9]
  T/C: 104 % of control

## CCOC(=N)CC(=O)OCC
dose: 50.0 mg/kg/injection, schedule: Q01DX001 (ip), vehicle: saline
  T/C: 101 % of control and 110 % of control
dose: 89.0 mg/kg/injection, schedule: Q01DX001 (ip), vehicle: saline
  T/C: 101 % of control
[10]
  T/C: 104 % of control and 113 % of control
dose: 133.0 mg/kg/injection, schedule: Q01DX001 (ip), vehicle: saline
  T/C: 101 % of control
[12]
  T/C: 95 % of control and 104 % of control and 231 % of control
dose: 300.0 mg/kg/injection, schedule: Q01DX001 (ip), vehicle: saline
  T/C: 98 % of control
[11]
  T/C: 95 % of control and 101 % of control
